{"source": "patent US20250144094A1", "about": "(Erasca, Inc., priority 2021, published 2025)", "data": [{"molecular_target": "Recombinant human ULK1 (1-649) (Homo sapiens (Human), UniProt O75385)", "sequence (O75385 1-649)": "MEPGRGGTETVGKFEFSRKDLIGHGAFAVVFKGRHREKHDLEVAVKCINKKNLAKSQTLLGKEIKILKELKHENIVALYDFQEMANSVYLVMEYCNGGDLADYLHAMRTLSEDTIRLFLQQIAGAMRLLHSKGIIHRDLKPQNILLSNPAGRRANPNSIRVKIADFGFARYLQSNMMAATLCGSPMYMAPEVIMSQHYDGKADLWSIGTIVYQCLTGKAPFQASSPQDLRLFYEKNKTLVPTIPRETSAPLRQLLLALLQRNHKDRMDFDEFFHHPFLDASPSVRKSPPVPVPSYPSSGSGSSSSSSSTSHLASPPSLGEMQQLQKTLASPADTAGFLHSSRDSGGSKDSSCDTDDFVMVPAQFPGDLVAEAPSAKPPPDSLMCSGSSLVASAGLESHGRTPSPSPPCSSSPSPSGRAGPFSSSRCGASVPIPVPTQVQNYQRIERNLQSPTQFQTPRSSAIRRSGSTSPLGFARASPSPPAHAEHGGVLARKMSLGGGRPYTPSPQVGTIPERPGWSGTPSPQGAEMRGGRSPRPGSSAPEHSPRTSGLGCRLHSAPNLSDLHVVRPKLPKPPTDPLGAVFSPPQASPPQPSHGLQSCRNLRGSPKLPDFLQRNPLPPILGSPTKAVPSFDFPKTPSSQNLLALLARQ", "assay": "ULK1 ADP Glo kinase activity assay, new method (ULKtide peptide substrate)", "conditions": "25° C., 40 minutes, read-out: ULK1 biochemical IC50", "protocol": "Recombinant human ULK1 (1-649) protein expressed in Sf9 insect cells was obtained from SignalChem (Vancouver, BC), catalog #U01-11G. Active kinase was purified via N-terminal GST tag to >85% purity.\nADP GLO Kinase Assay Reagents were obtained from Promega Corp (Madison, WI), catalog #V9104.\nSynthetic peptide substrate (ULKtide) with the amino acid sequence YANWLAASIYLDGKKK was obtained from ThermoFisher Scientific USA.\nULK1 inhibitor potency was determined using the luminescent ADP Glo Kinase Assay (Promega), a universal ADP detection system that measures kinase activity by quantifying the amount of ADP produced during a kinase reaction. ULK1 kinase reactions are performed in a standard 96-well microplate (20 μL reaction volume) at 25° C. for 40 minutes in the presence or absence of the test compound (12-point dilution series starting at 10 μM). Addition of peptide substrate and ATP initiates the kinase reaction.\nThe standard ADP Glo assay is performed in two steps. In step one, following the kinase reaction, an equal volume of ADP-Glo™ Reagent (20 μL) is added to terminate the kinase reaction and deplete the remaining ATP. In the second step, the Kinase Detection Reagent (10 μL) is added to simultaneously convert ADP to ATP and allow the newly synthesized ATP to be measured using a luciferase/luciferin reaction. Step two of the ADP Glo assay is performed in a white 384-well plate (20 μL final volume). Thirty minutes after the addition of the Detection reagent, light generated from the luciferase reaction is measured (1 second exposure) using a microplate compatible luminometer (CLARIOstar, BMG Labtech).\nInhibition of ULK1 kinase activity is determined for each test compound by comparison to DMSO only control wells. Inhibitor IC50 was calculated by plotting the change in luminescence after 30 minutes (response) versus inhibitor concentration (in log molar) then applying the four-parameter variable slope curve fit (GraphPad Prism). Inhibition of ULK1 in biochemical assay is found in Table 4.", "units": {"IC50": "nM"}, "values": [{"smiles": "Cc1cc2c(cc1Nc1ncc(C(F)(F)F)c(-c3cc4c(s3)C(=O)N(C)CCS4(=O)=O)n1)CCNC2", "note": "[Example 184, 4-methyl-7-(2-((7-methyl-1,2,3,4-tetrahydroisoquinolin-6-yl)amino)-5-(trifluoromethyl)pyrimidin-4-yl)-3,4-dihydrothieno[2,3-f][1,4]thiazepin-5(2H)-one 1,1-dioxide]", "IC50": "≤ 5"}, {"smiles": "CCN1CCc2cc(Nc3ncc(C(F)(F)F)c(-c4cc5c(s4)C(=O)N(C)CCS5(=O)=O)n3)c(C)cc2C1", "note": "[Example 185, 7-(2-((2-ethyl-7-methyl-1,2,3,4-tetrahydroisoquinolin-6-yl)amino)-5-(trifluoromethyl)pyrimidin-4-yl)-4-methyl-3,4-dihydrothieno[2,3-f][1,4]thiazepin-5(2H)-one 1,1-dioxide]", "IC50": "≤ 5"}, {"smiles": "CCN1CCc2cc(Nc3ncc(C(F)(F)F)c(-c4cc5c(s4)C(=O)N(C)CCS5(=O)=O)n3)c(C3CC3)cc2C1", "note": "[Example 186, 7-(2-((7-cyclopropyl-2-ethyl-1,2,3,4-tetrahydroisoquinolin-6-yl)amino)-5-(trifluoromethyl)pyrimidin-4-yl)-4-methyl-3,4-dihydrothieno[2,3-f][1,4]thiazepin-5(2H)-one 1,1-dioxide]", "IC50": "≤ 5"}, {"smiles": "Cc1nn(CCN(C)C)cc1Nc1ncc(C(F)(F)F)c(-c2cc3c(s2)C(=O)N(C)CCS3(=O)=O)n1", "note": "[Example 187, 7-(2-((1-(2-(dimethylamino)ethyl)-3-methyl-1H-pyrazol-4-yl)amino)-5-(trifluoromethyl)pyrimidin-4-yl)-4-methyl-3,4-dihydrothieno[2,3-f][1,4]thiazepin-5(2H)-one 1,1-dioxide]", "IC50": "≤ 5"}, {"smiles": "CCN1CCc2cc(Nc3ncc(C(F)(F)F)c(-c4cc5c(s4)C(=O)N(C)CCS5(=O)=O)n3)c(SC)cc2C1", "note": "[Example 188, 7-(2-((2-ethyl-7-(methylthio)-1,2,3,4-tetrahydroisoquinolin-6-yl)amino)-5-(trifluoromethyl)pyrimidin-4-yl)-4-methyl-3,4-dihydrothieno[2,3-f][1,4]thiazepin-5(2H)-one 1,1-dioxide]", "IC50": "≤ 5"}, {"smiles": "CN1CCS(=O)(=O)c2cc(-c3nc(Nc4cc(N5CCNCC5)ccc4Cl)ncc3C(F)(F)F)sc2C1=O", "note": "[Example 189, 7-(2-((2-chloro-5-(piperazin-1-yl)phenyl)amino)-5-(trifluoromethyl)pyrimidin-4-yl)-4-methyl-3,4-dihydrothieno[2,3-f][1,4]thiazepin-5(2H)-one 1,1-dioxide]", "IC50": "50 to 100"}, {"smiles": "CCN1Cc2cc(F)c(Nc3ncc(C(F)(F)F)c(-c4cc5c(s4)C(=O)N(C)CCS5(=O)=O)n3)cc2C1", "note": "[Example 190, 7-(2-((2-ethyl-6-fluoroisoindolin-5-yl)amino)-5-(trifluoromethyl)pyrimidin-4-yl)-4-methyl-3,4-dihydrothieno[2,3-f][1,4]thiazepin-5(2H)-one 1,1-dioxide]", "IC50": "≤ 5"}, {"smiles": "CCN1Cc2ccc(Nc3ncc(C(F)(F)F)c(-c4cc5c(s4)C(=O)N(C)CCS5(=O)=O)n3)c(C3CC3)c2C1", "note": "[Example 191, 7-(2-((4-cyclopropyl-2-ethylisoindolin-5-yl)amino)-5-(trifluoromethyl)pyrimidin-4-yl)-4-methyl-3,4-dihydrothieno[2,3-f][1,4]thiazepin-5(2H)-one 1,1-dioxide]", "IC50": "50 to 100"}, {"smiles": "CCN1Cc2cc(C)c(Nc3ncc(C(F)(F)F)c(-c4cc5c(s4)C(=O)N(C)CCS5(=O)=O)n3)cc2C1", "note": "[Example 192, 7-(2-((2-ethyl-6-methylisoindolin-5-yl)amino)-5-(trifluoromethyl)pyrimidin-4-yl)-4-methyl-3,4-dihydrothieno[2,3-f][1,4]thiazepin-5(2H)-one 1,1-dioxide]", "IC50": "≤ 5"}, {"smiles": "CN1CCS(=O)(=O)c2cc(-c3nc(Nc4ccc(N5CCNCC5)cc4Cl)ncc3C(F)(F)F)sc2C1=O", "note": "[Example 193, 7-(2-((2-chloro-4-(piperazin-1-yl)phenyl)amino)-5-(trifluoromethyl)pyrimidin-4-yl)-4-methyl-3,4-dihydrothieno[2,3-f][1,4]thiazepin-5(2H)-one 1,1-dioxide]", "IC50": "≤ 5"}, {"smiles": "CCN1CCN(c2ccc(Nc3ncc(C(F)(F)F)c(-c4cc5c(s4)C(=O)N(C)CCS5(=O)=O)n3)c(Cl)c2)CC1", "note": "[Example 195, 7-(2-((2-chloro-4-(4-ethylpiperazin-1-yl)phenyl)amino)-5-(trifluoromethyl)pyrimidin-4-yl)-4-methyl-3,4-dihydrothieno[2,3-f][1,4]thiazepin-5(2H)-one 1,1-dioxide]", "IC50": "≤ 5"}, {"smiles": "CCc1cc(N2CCN(C)CC2)ccc1Nc1ncc(C(F)(F)F)c(-c2cc3c(s2)C(=O)N(C)CCS3(=O)=O)n1", "note": "[Example 196, 7-(2-((2-ethyl-4-(4-methylpiperazin-1-yl)phenyl)amino)-5-(trifluoromethyl)pyrimidin-4-yl)-4-methyl-3,4-dihydrothieno[2,3-f][1,4]thiazepin-5(2H)-one 1,1-dioxide]", "IC50": "≤ 5"}, {"smiles": "CCc1cc(N2CCN(CC)CC2)ccc1Nc1ncc(C(F)(F)F)c(-c2cc3c(s2)C(=O)N(C)CCS3(=O)=O)n1", "note": "[Example 197, 7-(2-((2-ethyl-4-(4-ethylpiperazin-1-yl)phenyl)amino)-5-(trifluoromethyl)pyrimidin-4-yl)-4-methyl-3,4-dihydrothieno[2,3-f][1,4]thiazepin-5(2H)-one 1,1-dioxide]", "IC50": "≤ 5"}, {"smiles": "CCN1CCS(=O)(=O)c2cc(-c3nc(Nc4cc5c(cc4C4CC4)CNCC5)ncc3C(F)(F)F)sc2C1=O", "note": "[Example 198, 7-(2-((7-cyclopropyl-1,2,3,4-tetrahydroisoquinolin-6-yl)amino)-5-(trifluoromethyl)pyrimidin-4-yl)-4-ethyl-3,4-dihydrothieno[2,3-f][1,4]thiazepin-5(2H)-one 1,1-dioxide]", "IC50": "≤ 5"}, {"smiles": "CCN1CCc2cc(Nc3ncc(C(F)(F)F)c(-c4cc5c(s4)C(=O)N(CC)CCS5(=O)=O)n3)c(C3CC3)cc2C1", "note": "[Example 199, 7-(2-((7-cyclopropyl-2-ethyl-1,2,3,4-tetrahydroisoquinolin-6-yl)amino)-5-(trifluoromethyl)pyrimidin-4-yl)-4-ethyl-3,4-dihydrothieno[2,3-f][1,4]thiazepin-5(2H)-one 1,1-dioxide]", "IC50": "≤ 5"}, {"smiles": "CN1CCS(=O)(=O)c2cc(-c3nc(Nc4cc5nnn(C)c5cc4Cl)ncc3C(F)(F)F)sc2C1=O", "note": "[Example 200, 7-(2-((6-chloro-1-methyl-1H-benzo[d][1,2,3]triazol-5-yl)amino)-5-(trifluoromethyl)pyrimidin-4-yl)-4-methyl-3,4-dihydrothieno[2,3-f][1,4]thiazepin-5(2H)-one 1,1-dioxide]", "IC50": "> 100"}, {"smiles": "O=C1c2sc(-c3nc(Nc4cc5c(cc4Cl)CCNC5)ncc3C(F)(F)F)cc2S(=O)(=O)CCN1C1CC1", "note": "[Example 201, 7-(2-((6-chloro-1,2,3,4-tetrahydroisoquinolin-7-yl)amino)-5-(trifluoromethyl)pyrimidin-4-yl)-4-cyclopropyl-3,4-dihydrothieno[2,3-f][1,4]thiazepin-5(2H)-one 1,1-dioxide]", "IC50": "≤ 5"}, {"smiles": "O=C1c2sc(-c3nc(Nc4cc5c(cc4Cl)CCNC5)ncc3C(F)(F)F)cc2S(=O)(=O)CCN1C1CCC1", "note": "[Example 202, 7-(2-((6-chloro-1,2,3,4-tetrahydroisoquinolin-7-yl)amino)-5-(trifluoromethyl)pyrimidin-4-yl)-4-cyclobutyl-3,4-dihydrothieno[2,3-f][1,4]thiazepin-5(2H)-one 1,1-dioxide]", "IC50": "≤ 5"}, {"smiles": "CCN1CCc2cc(Nc3ncc(C(F)(F)F)c(-c4cc5c(s4)C(=O)N(C4CCC4)CCS5(=O)=O)n3)c(Cl)cc2C1", "note": "[Example 203, 7-(2-((7-chloro-2-ethyl-1,2,3,4-tetrahydroisoquinolin-6-yl)amino)-5-(trifluoromethyl)pyrimidin-4-yl)-4-cyclobutyl-3,4-dihydrothieno[2,3-f][1,4]thiazepin-5(2H)-one 1,1-dioxide]", "IC50": "≤ 5"}, {"smiles": "CCN1CCS(=O)(=O)c2cc(-c3nc(Nc4cc5c(cc4Cl)CCNC5)ncc3C(F)(F)F)sc2C1=O", "note": "[Example 204, 7-(2-((6-chloro-1,2,3,4-tetrahydroisoquinolin-7-yl)amino)-5-(trifluoromethyl)pyrimidin-4-yl)-4-ethyl-3,4-dihydrothieno[2,3-f][1,4]thiazepin-5(2H)-one 1,1-dioxide]", "IC50": "≤ 5"}, {"smiles": "Cc1cc2c(cc1Nc1ncc(C(F)(F)F)c(-c3cc4c(s3)C(=O)N(C)CCS4(=O)=O)n1)CCN(CC1CC1)C2", "note": "[Example 205, 7-(2-((2-(cyclopropylmethyl)-7-methyl-1,2,3,4-tetrahydroisoquinolin-6-yl)amino)-5-(trifluoromethyl)pyrimidin-4-yl)-4-methyl-3,4-dihydrothieno[2,3-f][1,4]thiazepin-5(2H)-one 1,1-dioxide]", "IC50": "≤ 5"}, {"smiles": "CN1CCS(=O)(=O)c2cc(-c3nc(Nc4ccc(N5CCN(CC6CC6)CC5)cc4Cl)ncc3C(F)(F)F)sc2C1=O", "note": "[Example 206, 7-(2-((2-chloro-4-(4-(cyclopropylmethyl)piperazin-1-yl)phenyl)amino)-5-(trifluoromethyl)pyrimidin-4-yl)-4-methyl-3,4-dihydrothieno[2,3-f][1,4]thiazepin-5(2H)-one 1,1-dioxide]", "IC50": "≤ 5"}]}]}
